Test results from patent US11071300B2, “Pesticidally active pyrazole derivatives” (SYNGENTA PARTICIPATIONS AG, priority 2017, dated 2021).
Read-outs that look alike come from different tables or passages of the source.

How the values were obtained:
Type in all cases: in vivo
[1] = tested on: Spodoptera littoralis; experiment: Spodoptera littoralis (Egyptian cotton leaf worm) leaf disc test; settings: foliar, 72 h, read-out: control (at least one of mortality, anti-feedant effect, growth inhibition); for percent control (mortality, anti-feedant effect or growth inhibition) at 200 ppm: application rate 200 ppm, cotton leaf discs sprayed, L1 larvae, 3 days after infestation
Protocol: Spodoptera littoralis (Egyptian Cotton Leaf Worm)
Cotton leaf discs were placed on agar in 24-well microtiter plates and sprayed with aqueous test solutions prepared from 10′000 ppm DMSO stock solutions. After drying the leaf discs were infested with five L1 larvae. The samples were assessed for mortality, anti-feedant effect, and growth inhibition in comparison to untreated samples 3 days after infestation. Control of Spodoptera littoralis by a test sample is when at least one of mortality, anti-feedant effect, and growth inhibition is higher than the untreated sample.

[2] = tested on: Plutella xylostella; experiment: Plutella xylostella (diamond back moth) artificial diet test; settings: 120 h, read-out: control (mortality and growth inhibition)
Protocol: Plutella xylostella (Diamond Back Moth):
24-well microtiter plates with artificial diet were treated with aqueous test solutions prepared from 10′000 ppm DMSO stock solutions by pipetting. After drying, the plates were infested with L2 larvae (10 to 15 per well). The samples were assessed for mortality and growth inhibition in comparison to untreated samples 5 days after infestation.

[3] = tested on: Diabrotica Balteata; experiment: Diabrotica balteata (corn root worm) maize sprout test; settings: 96 h, read-out: control (mortality and growth inhibition)
Protocol: Diabrotica Balteata, (Corn Root Worm)
Maize sprouts, placed on an agar layer in 24-well microtiter plates were treated with aqueous test solutions prepared from 10′000 ppm DMSO stock solutions by spraying. After drying, the plates were infested with L2 larvae (6 to 10 per well). The samples were assessed for mortality and growth inhibition in comparison to untreated samples 4 days after infestation.

[4] = tested on: Thrips tabaci; experiment: Thrips tabaci (onion thrips) leaf disc test; settings: foliar, 144 h, read-out: control (mortality)
Protocol: Thrips tabaci (Onion Thrips):
Sunflower leaf discs were placed on agar in 24-well microtiter plates and sprayed with aqueous test solutions prepared from 10′000 ppm DMSO stock solutions. After drying the leaf discs were infested with a thrips population of mixed ages. The samples were assessed for mortality 6 days after infestation.

[5] = application rate 200 ppm, artificial diet, L2 larvae, 5 days after infestation
[6] = application rate 200 ppm, maize sprouts sprayed, L2 larvae, 4 days after infestation
[7] = application rate 200 ppm, sunflower leaf discs sprayed, mixed ages, 6 days after infestation

CN(C(=O)c1cc(-c2cnn(-c3c(C(F)(F)F)c(OS(=O)(=O)C(F)(F)C(F)(F)F)nn3C)c2)ccc1Cl)C1CC1 [Compound 16, [5-[4-[4-chloro-3-[cyclopropyl(methyl)carbamoyl]phenyl]pyrazol-1-yl]-1-methyl-4-(trifluoromethyl)pyrazol-3-yl] 1,1,2,2,2-pentafluoroethanesulfonate]
≥ 80%: percent control (mortality, anti-feedant effect or growth inhibition) at 200 ppm [1] | mortality at 200 ppm [2, 5] | mortality at 200 ppm [3, 6]

CCN(C(=O)c1cc(-c2cc(-c3c(C(F)(F)F)c(OS(=O)(=O)C(F)(F)C(F)(F)C(F)(F)C(F)(F)F)nn3C)no2)ccc1Cl)C1(C#N)CC1 [Compound 44, [5-[5-[4-chloro-3-[(1-cyanocyclopropyl)-ethyl-carbamoyl]phenyl]isoxazol-3-yl]-1-methyl-4-(trifluoromethyl)pyrazol-3-yl] 1,1,2,2,3,3,4,4,4-nonafluorobutane-1-sulfonate]
≥ 80%: percent control (mortality, anti-feedant effect or growth inhibition) at 200 ppm [1] | mortality at 200 ppm [2]

CCN(C(=O)c1cc(-c2cnn(-c3c(C(F)(F)F)c(OS(=O)(=O)C(F)(F)C(F)(F)C(F)(F)C(F)(F)F)nn3C)c2)ccc1Cl)C1CC1 [Compound 13, [5-[4-[4-chloro-3-[cyclopropyl(ethyl)carbamoyl]phenyl]pyrazol-1-yl]-1-methyl-4-(trifluoromethyl)pyrazol-3-yl] 1,1,2,2,3,3,4,4,4-nonafluorobutane-1-sulfonate]
≥ 80%: mortality at 200 ppm [4] | percent control (mortality, anti-feedant effect or growth inhibition) at 200 ppm [1] | mortality at 200 ppm [2] | mortality at 200 ppm [3]

CN(C(=O)c1cc(-c2cnn(-c3c(C(F)(F)F)c(OS(=O)(=O)C(F)(F)C(F)(F)Cl)nn3C)c2)ccc1Cl)C1CC1 [Compound 11, [5-[4-[4-chloro-3-[cyclopropyl(methyl)carbamoyl]phenyl]pyrazol-1-yl]-1-methyl-4-(trifluoromethyl)pyrazol-3-yl] 2-chloro-1,1,2,2-tetrafluoro-ethanesulfonate]
≥ 80%: mortality at 200 ppm [4, 7] | percent control (mortality, anti-feedant effect or growth inhibition) at 200 ppm [1] | mortality at 200 ppm [2, 5] | mortality at 200 ppm [3, 6]

CN(C(=O)c1cc(-c2cnn(-c3c(C(F)(F)F)c(OS(=O)(=O)C(F)(F)C(F)(F)C(F)(F)C(F)(F)F)nn3C)c2)ccc1Cl)C1CC1 [Compound 15, [5-[4-[4-chloro-3-[cyclopropyl(methyl)carbamoyl]phenyl]pyrazol-1-yl]-1-methyl-4-(trifluoromethyl)pyrazol-3-yl] 1,1,2,2,3,3,4,4,4-nonafluorobutane-1-sulfonate]
≥ 80%: percent control (mortality, anti-feedant effect or growth inhibition) at 200 ppm [1] | mortality at 200 ppm [2] | mortality at 200 ppm [3]

CN(C(=O)c1cc(-c2cnn(-c3c(C(F)(F)F)c(OS(=O)(=O)C(F)(F)C(F)(F)F)nn3C)c2)ccc1Cl)C1(C#N)CC1 [Compound 7, [5-[4-[4-chloro-3-[(1-cyanocyclopropyl)-methyl-carbamoyl]phenyl]pyrazol-1-yl]-1-methyl-4-(trifluoromethyl)pyrazol-3-yl] 1,1,2,2,2-pentafluoroethanesulfonate]
≥ 80%: mortality at 200 ppm [4, 7] | percent control (mortality, anti-feedant effect or growth inhibition) at 200 ppm [1] | mortality at 200 ppm [2, 5] | mortality at 200 ppm [3, 6]

Cn1nc(OS(=O)(=O)C(F)(F)C(F)(F)C(F)(F)C(F)(F)F)c(C(F)(F)F)c1-n1cc(-c2cnc(Cl)c(C(=O)NC3(C#N)CC3)c2)cn1 [Compound 30, [5-[4-[6-chloro-5-[(1-cyanocyclopropyl)carbamoyl]-3-pyridyl]pyrazol-1-yl]-1-methyl-4-(trifluoromethyl)pyrazol-3-yl] 1,1,2,2,3,3,4,4,4-nonafluorobutane-1-sulfonate]
≥ 80%: percent control (mortality, anti-feedant effect or growth inhibition) at 200 ppm [1] | mortality at 200 ppm [2] | mortality at 200 ppm [3]

CN(C(=O)c1cc(-c2cnn(-c3c(C(F)(F)F)c(OS(=O)(=O)C(F)(F)C(F)(F)C(F)(F)C(F)(F)F)nn3C)c2)cnc1Cl)C1(C#N)CC1 [Compound 31, [5-[4-[6-chloro-5-[(1-cyanocyclopropyl)-methyl-carbamoyl]-3-pyridyl]pyrazol-1-yl]-1-methyl-4-(trifluoromethyl)pyrazol-3-yl] 1,1,2,2,3,3,4,4,4-nonafluorobutane-1-sulfonate]
≥ 80%: mortality at 200 ppm [4] | percent control (mortality, anti-feedant effect or growth inhibition) at 200 ppm [1] | mortality at 200 ppm [2] | mortality at 200 ppm [3]

Cn1nc(OS(=O)(=O)C(F)(F)C(F)(F)C(F)(F)C(F)(F)F)c(C(F)(F)F)c1-c1cc(-c2ccc(Cl)c(C(=O)NC3CC3)c2)on1 [Compound 39, [5-[5-[4-chloro-3-(cyclopropylcarbamoyl)phenyl]isoxazol-3-yl]-1-methyl-4-(trifluoromethyl)pyrazol-3-yl] 1,1,2,2,3,3,4,4,4-nonafluorobutane-1-sulfonate]
≥ 80%: mortality at 200 ppm [2] | mortality at 200 ppm [3]

CN(C(=O)c1cc(-c2cnn(-c3c(C(F)(F)F)c(OS(=O)(=O)C(F)(F)C(F)(F)C(F)(F)C(F)(F)F)nn3C)c2)cnc1Cl)C1CC1 [Compound 28, [5-[4-[6-chloro-5-[cyclopropyl(methyl)carbamoyl]-3-pyridyl]pyrazol-1-yl]-1-methyl-4-(trifluoromethyl)pyrazol-3-yl] 1,1,2,2,3,3,4,4,4-nonafluorobutane-1-sulfonate]
≥ 80%: mortality at 200 ppm [4] | percent control (mortality, anti-feedant effect or growth inhibition) at 200 ppm [1] | mortality at 200 ppm [2] | mortality at 200 ppm [3]

CN(C(=O)c1cc(-c2cc(-c3c(C(F)(F)F)c(OS(=O)(=O)C(F)(F)C(F)(F)C(F)(F)C(F)(F)F)nn3C)no2)ccc1Cl)C1(C#N)CC1 [Compound 43, [5-[5-[4-chloro-3-[(1-cyanocyclopropyl)-methyl-carbamoyl]phenyl]isoxazol-3-yl]-1-methyl-4-(trifluoromethyl)pyrazol-3-yl] 1,1,2,2,3,3,4,4,4-nonafluorobutane-1-sulfonate]
≥ 80%: mortality at 200 ppm [4] | percent control (mortality, anti-feedant effect or growth inhibition) at 200 ppm [1] | mortality at 200 ppm [2] | mortality at 200 ppm [3]

Cn1nc(OS(=O)(=O)F)c(C(F)(F)F)c1-n1cc(-c2ccc(Cl)c(C(=O)NC3CC3)c2)cn1 [Compound 4, 5-[4-[4-chloro-3-(cyclopropylcarbamoyl)phenyl]pyrazol-1-yl]-3-fluorosulfonyloxy-1-methyl-4-(trifluoromethyl)pyrazole]
≥ 80%: mortality at 200 ppm [1]
